Laboratory results reported in patent US10047105B2, “Gyrase inhibitors” (Merck Sharp & Dohme Corp., priority 2009, dated 2018).
≈ marks a conversion by molar mass, not a printed value.

Tests used:
[1] = tested on: S. pneumoniae ATCC 51916; assay: MIC, S. pneumoniae; assay type: cell-based; details: S. pneumoniae
[2] = tested on: S. aureus ATCC 13709; assay: MIC, antibacterial potency, S. aureus; assay type: cell-based; details: S. aureus

| SMILES | MIC Spn52 [1] [µg/mL] | MIC, SA [2] [µg/mL] |
| --- | --- | --- |
| CCc1[nH]c2nc(Oc3cccnc3)nc(Oc3cccnc3)c2c1Br.O=C(O)C(F)(F)F [700,598] | 2 | 1 |
| CCc1[nH]c2nc(Nc3cnc4c(c3)nnn4C)nc(OC)c2c1Br.O=C(O)C(F)(F)F [700,599] | 2 | ≤ 0.5 |
| CCOc1nc(Nc2cnc3c(c2)nnn3C)nc2[nH]c(CC)c(Br)c12.O=C(O)C(F)(F)F [700,600] | > 8 | > 8 |
| CCc1[nH]c2nc(Sc3cnc4nccnc4c3)nc(N3CC(N(C)C(=O)OC(C)(C)C)C3)c2c1Cl.O=C(O)C(F)(F)F [700,601] | 2 | ≤ 0.5 |
| CCc1[nH]c2nc(Sc3cnc4nccnc4c3)nc(N3CC(CN(C)C)C3)c2c1Cl.O=C(O)C(F)(F)F.O=C(O)C(F)(F)F [700,602] | 4 | 4 |
| CCc1[nH]c2nc(Sc3cnc4nccnc4c3)nc(N3CC(N(C)C)C3)c2c1Cl.O=C(O)C(F)(F)F.O=C(O)C(F)(F)F [700,603] | 8 | 4 |
| CCc1[nH]c2nc(Sc3cnc4nccnc4c3)nc(N3CC(N4CCCC4)C3)c2c1Cl.O=C(O)C(F)(F)F.O=C(O)C(F)(F)F [700,604] | 8 | 4 |
| CCc1[nH]c2nc(Sc3cnc4nccnc4c3)nc(N3CC(N4CCCCC4)C3)c2c1Cl.O=C(O)C(F)(F)F.O=C(O)C(F)(F)F [700,605] | 8 | 4 |
| CCc1[nH]c2nc(Sc3cnc4nccnc4c3)nc(N3CC(N4CCOCC4)C3)c2c1Cl.O=C(O)C(F)(F)F.O=C(O)C(F)(F)F [700,606] | 4 | 2 |
| CCc1[nH]c2nc(Sc3cnc4nccnc4c3)nc(N3CC(C)(CN)C3)c2c1Cl.O=C(O)C(F)(F)F.O=C(O)C(F)(F)F [700,607] | 16 | 8 |
| CCc1[nH]c2nc(Sc3cnc4nccnc4c3)nc(N3CC4C(C3)C4NC(=O)OC(C)(C)C)c2c1Cl.O=C(O)C(F)(F)F.O=C(O)C(F)(F)F (stereo not drawn) [700,608] | 2 | 1 |
| CCc1[nH]c2nc(Sc3ccc4nnc(C(=O)NC[C@H](C)O)nc4c3)nc(N3CC(N)C3)c2c1Cl [700,611] | 8 (≈ 15.6 µM) | 2 (≈ 3.89 µM) |
| CCc1[nH]c2nc(Cl)nc(Oc3ccc4nccnc4c3)c2c1Cl [700,612] | > 64 | > 64 |
| CCc1[nH]c2nc(Oc3ccc4nccnc4c3)nc(Oc3ccc4nccnc4c3)c2c1Cl [700,613] | 4 (≈ 8.51 µM) | ≤ 0.5 |
| CCc1[nH]c2nc(Oc3cnc4c(cnn4C)c3)nc(Oc3cnc4c(cnn4C)c3)c2c1Cl [700,614] | 16 (≈ 33.6 µM) | 2 (≈ 4.2 µM) |
| CCc1[nH]c2nc(Oc3cnc4c(cnn4C)c3)nc(Oc3cccnc3)c2c1Cl [700,615] | 4 (≈ 9.48 µM) | ≤ 0.5 |
| CCc1[nH]c2nc(Sc3cnc4nccnc4c3)nc(N3CC[C@@H](N)C3)c2c1Cl [700,618] | 2 (≈ 4.68 µM) | ≤ 0.5 |
| CCc1[nH]c2nc(Sc3ccc4nnc(C(=O)NCCCN5CCN(C)CC5)nc4c3)nc(N3CC[C@@H](N)C3)c2c1Cl [700,619] | 32 (≈ 52.4 µM) | 32 (≈ 52.4 µM) |
| CCc1[nH]c2nc(Sc3ccc4c(N5CC(N)C5)cc(C(=O)O)nc4c3)nc(N3CC[C@@H](N)C3)c2c1Cl [700,620] | > 64 | 32 (≈ 59.4 µM) |
| CCc1[nH]c2nc(Oc3cccnc3)nc(Oc3cncnc3)c2c1Br.O=C(O)C(F)(F)F [700,621] | 8 | 4 |
| CCc1[nH]c2nc(Sc3cc(=O)[nH]c(=O)[nH]3)nc(N3CC4CNC4C3)c2c1Cl.O=C(O)C(F)(F)F (stereo not drawn) [700,627] | 16 | 4 |
| CCc1[nH]c2nc(Sc3cc(=O)n(C)c(=O)[nH]3)nc(N3CC4CNC4C3)c2c1Cl.O=C(O)C(F)(F)F (stereo not drawn) [700,628] | 8 | 2 |
| CCc1[nH]c2nc(Sc3cnc4nccnc4c3)nc(N3CC(C)(NC(=O)OC(C)(C)C)C3)c2c1Cl.O=C(O)C(F)(F)F [700,629] | 2 | ≤ 0.5 |
| CCc1[nH]c2nc(Sc3cnc4nccnc4c3)nc(N3CC(C)(N)C3)c2c1Cl.O=C(O)C(F)(F)F.O=C(O)C(F)(F)F [700,630] | 8 | 4 |
| CCc1[nH]c2nc(Oc3cncnc3)nc(Oc3cncc(OC)c3)c2c1Cl.O=C(O)C(F)(F)F [700,648] | 2 | ≤ 0.5 |
| CCc1[nH]c2nc(Oc3cnc4ccoc4c3)nc(Oc3cncc(OC)c3)c2c1Cl.O=C(O)C(F)(F)F [700,649] | 2 | ≤ 0.5 |

| SMILES | MIC Spn52 [1] [µg/mL] | MIC, SA [2] [µg/mL] |
| --- | --- | --- |
| CCc1[nH]c2nc(Oc3cnc4ccoc4c3)nc(Oc3cnc4ccoc4c3)c2c1Cl.O=C(O)C(F)(F)F [700,650] | 1 | ≤ 0.5 |
| CCc1[nH]c2nc(Oc3cccnc3)nc(Oc3cccnc3)c2c1C(F)(F)F.O=C(O)C(F)(F)F [700,654] | > 64 | > 64 |
| CCc1[nH]c2nc(Sc3cnc4nccnc4c3)nc(N3CC4CC3CN4)c2c1Cl.O=C(O)C(F)(F)F (stereo not drawn) [700,655] | 2 | > 64 |
| CCc1[nH]c2nc(Sc3cnc4nccnc4c3)nc(N3CCC(C(O)c4cccs4)CC3)c2c1Cl.O=C(O)C(F)(F)F (stereo not drawn) [700,656] | 2 | ≤ 0.5 |
| CCc1[nH]c2nc(Sc3cnc4nccnc4c3)nc(N3CC[C@H](O)[C@H]3CO)c2c1Cl [700,657] | 2 (≈ 4.37 µM) | 8 (≈ 17.5 µM) |
| CCc1[nH]c2nc(Sc3cnc4nccnc4c3)nc(N3CC4C(C3)C4NC(=N)N)c2c1Cl (stereo not drawn) [700,658] | 8 (≈ 16.6 µM) | ≤ 0.5 |
| CCc1[nH]c2nc(Sc3cnc4cccnc4c3)nc(N3CC[C@H](O)[C@H]3CO)c2c1Cl [700,659] | 2 (≈ 4.38 µM) | 4 (≈ 8.75 µM) |
| CCc1[nH]c2nc(Sc3cnc4cccnc4c3)nc(N3CC4CNC4C3)c2c1Cl (stereo not drawn) [700,660] | 1 (≈ 2.28 µM) | ≤ 0.5 |
| CCc1[nH]c2nc(Sc3ccc4c(N5CC(N)C5)cc(C(=O)O)nc4c3)nc(N3CC4C(N)C4C3)c2c1Cl (stereo not drawn) [700,661] | > 64 | > 64 |
| CCOc1nc(Oc2ccc3c(N)nc(C)nc3c2)nc2[nH]c(CC)c(Cl)c12.O=C(O)C(F)(F)F [700,664] | 4 | 2 |
| CCOc1nc(Oc2cccnc2)nc2[nH]c(CC)c(Cl)c12.O=C(O)C(F)(F)F [700,665] | 8 | 2 |
| CCc1[nH]c2nc(Sc3ccc(C#N)c(F)c3)nc(N3CC[C@@H](N)C3)c2c1Cl.O=C(O)C(F)(F)F [700,666] | 4 | 2 |
| CCc1[nH]c2nc(Sc3cnc4nccnc4c3)nc(N3CC(Oc4cccnc4)C3)c2c1Cl.O=C(O)C(F)(F)F.O=C(O)C(F)(F)F [700,667] | 1 | ≤ 0.5 |
| CCc1[nH]c2nc(Sc3cnc4nccnc4c3)nc(N3CC(Oc4ccc(OC)cc4)C3)c2c1Cl.O=C(O)C(F)(F)F [700,668] | > 64 | 8 |
| CCc1[nH]c2nc(Sc3cnc4nccnc4c3)nc(N3CC(Oc4ccc(C(F)(F)F)cc4)C3)c2c1Cl.O=C(O)C(F)(F)F [700,669] | > 64 | > 64 |
| CCc1[nH]c2nc(Sc3cnc4nccnc4c3)nc(N3CC(C(N)=O)C3)c2c1Cl.O=C(O)C(F)(F)F [700,670] | 16 | 16 |
| CCc1[nH]c2nc(Sc3cnc4nccnc4c3)nc(N3CC(N4CCN(C(=O)OC(C)(C)C)CC4)C3)c2c1Cl.O=C(O)C(F)(F)F.O=C(O)C(F)(F)F [700,671] | 32 | 8 |
| CCc1[nH]c2nc(Sc3cnc4nccnc4c3)nc(N3CC(N4CCNCC4)C3)c2c1Cl.O=C(O)C(F)(F)F.O=C(O)C(F)(F)F [700,672] | 8 | 8 |
| CCc1[nH]c2nc(Sc3cnc4nccnc4c3)nc(N3CC4CNC4C3)c2c1Br.O=C(O)C(F)(F)F (stereo not drawn) [700,673] | 4 | 2 |
| CCc1[nH]c2nc(Sc3cnc4ccoc4c3)nc(N3CCC(N)C3)c2c1Cl.O=C(O)C(F)(F)F (stereo not drawn) [700,676] | 8 | 4 |
| CCc1[nH]c2nc(Sc3cnc4ccoc4c3)nc(N3CC4CNC4C3)c2c1Cl.O=C(O)C(F)(F)F (stereo not drawn) [700,677] | 8 | 2 |
| CCc1[nH]c2nc(Sc3cnc4nccnc4c3)nc(N3CC(N)C4(CC4)C3)c2c1Cl.O=C(O)C(F)(F)F (stereo not drawn) [700,678] | 2 | 1 |
| CCc1[nH]c2nc(Sc3cnc4ccoc4c3)nc(N3CCC(N)C3)c2c1Br.O=C(O)C(F)(F)F (stereo not drawn) [700,679] | > 64 | > 64 |
| CCc1[nH]c2nc(Sc3cnc4ccoc4c3)nc(N3CC4CNC4C3)c2c1Br.O=C(O)C(F)(F)F (stereo not drawn) [700,680] | 64 | 16 |
| CCc1[nH]c2nc(Sc3cnc4nccnc4c3)nc(Oc3cncc(OC)c3)c2c1Cl [700,686] | > 64 | > 64 |
